# According to patent US12310364B2, “Safened compositions comprising pyridine carboxylate herbicides and cloquintocet” (Corteva Agriscience LLC, priority 2018, dated 2025):
# “And” between values parts separate entries of the source, which are not always exact repeats. Equal entries are not always repeated.
# Legend:
# Format in all cases: in vivo
# [1] = test system: Triticum aestivum (winter wheat), TRZAW; assay: Greenhouse postemergence safening trial, visual injury on winter wheat
# Description: (§1) Greenhouse Trial Methodology-Evaluation of Postemergence Herbicidal […] in Crops […] When required to ensure good germination and healthy plants, a fungicide treatment and/or other chemical or physical treatment was applied. The plants were grown for 7-36 days (d) in a greenhouse with an approximate 14-hour (h) photoperiod which was maintained at about 23° C. during the day and 22° C. during the night. Nutrients and water were added on a regular basis and supplemental lighting was provided with overhead metal halide 1000-Watt lamps as necessary. The plants were employed for testing when they reached the second or third true leaf stage. Emulsifiable concentrates of each of each pyridine carboxylate herbicide (Compound A or Compound B) were prepared at 100 grams acid equivalent per liter (g ae/L). […] The concentrated stock solutions were further diluted with an aqueous mixture of 1.25% […] or MSO® Concentrate with LECI-TECH® to obtain stock solutions at reduced application rates for each herbicide. Spray solutions of the herbicide combinations (Compound A or Compound B plus safener) were prepared by adding weighed amounts or aliquots of the safener to the stock solutions of Compound A or Compound B to form 12-mL spray solutions in two-way combinations. […] Control plants were sprayed in the same manner with the solvent blank. All herbicide (component a) application rates are given as “g ae/ha” and all safener (component b) application rates are given as “g ai/ha.” The treated plants and control plants were placed in a greenhouse as described above and watered by sub-irrigation to prevent wash-off of the test compounds.
# [2] = test system: Hordeum vulgare (spring barley), HORVS; assay: Greenhouse postemergence safening trial, visual injury on spring barley
# Description: as §1
# [3] = test system: Sinapis arvensis (wild mustard), SINAR; assay: Greenhouse postemergence trial, visual injury on wild mustard
# Source text: (§2) Greenhouse Trial Methodology—Evaluation of Postemergence Herbicidal Safening in Crops
# (§3) Seeds of the desired test plant species were planted in a 90:10% v/v (volume/volume) mixture of PRO-MIX® BX (Premier Tech Horticulture, Quakertown, PA, USA) and PROFILE® GREENS GRADE™ (Profile Products LLC, Buffalo Grove, IL, USA) planting mixture, which typically has a pH of 5.2 to 6.2 and an organic matter content of at least 50 percent, in plastic pots with a surface area of 103.2 square centimeters (cm^2). When required to ensure good germination and healthy plants, a fungicide treatment and/or other chemical or physical treatment was applied. The plants were grown for 7-36 days (d) in a greenhouse with an approximate 14-hour (h) photoperiod which was maintained at about 23° C. during the day and 22° C. during the night. Nutrients and water were added on a regular basis and supplemental lighting was provided with overhead metal halide 1000-Watt lamps as necessary. The plants were employed for testing when they reached the second or third true leaf stage.
# (§4) Emulsifiable concentrates of each of each pyridine carboxylate herbicide (Compound A or Compound B) were prepared at 100 grams acid equivalent per liter (g ae/L). An aliquot of each emulsifiable concentrate was placed in a 25 mL glass vial and diluted with an aqueous mixture of 1.25% (v/v) ACTIROB® B esterified rapeseed oil (Bayer Crop Science, Research Triangle Park, NC, USA) or MSO® Concentrate with LECI-TECH® methylated soybean oil (Loveland Products, Loveland, CO, USA) to obtain concentrated stock solutions at the highest application rate for each herbicide, based upon a 12 milliliter (mL) application volume at a rate of 187 liters per hectare (L/ha). The concentrated stock solutions were further diluted with an aqueous mixture of 1.25% v/v ACTIROB® B or MSO® Concentrate with LECI-TECH® to obtain stock solutions at reduced application rates for each herbicide. Spray solutions of the herbicide combinations (Compound A or Compound B plus safener) were prepared by adding weighed amounts or aliquots of the safener to the stock solutions of Compound A or Compound B to form 12-mL spray solutions in two-way combinations.
# (§5) The spray solutions were applied to the plant material with an overhead Mandel track sprayer equipped with 8002E nozzles calibrated to deliver 187 L/ha over an application area of 0.503 square meters (m^2) at a spray height of 18 inches (43 centimeters (cm)) above the average plant canopy. Control plants were sprayed in the same manner with the solvent blank. All herbicide (component a) application rates are given as “g ae/ha” and all safener (component b) application rates are given as “g ai/ha.”
# (§6) The treated plants and control plants were placed in a greenhouse as described above and watered by sub-irrigation to prevent wash-off of the test compounds. After 20-22 d, the condition of the test plants as compared with that of the control plants was determined visually and scored on a scale of 0 to 100 percent where 0 corresponds to no injury and 100 corresponds to complete kill.
# [4] = test system: Salsola kali (Russian thistle), SASKR; assay: Greenhouse postemergence trial, visual injury on Russian thistle
# Description: as §1
# maize (ZEAMX) = assay: Greenhouse postemergence safening trial, visual injury on maize
# Source text: as §2, §3, §4, §5, §6
# rice (ORYSA) = assay: Greenhouse postemergence safening trial, visual injury on rice; settings: Table 19
# Source text: as §2, §3
# as §4, with “combinations. […]” for “combinations.”
# as §6
# [5] = test system: large crabgrass (DIGSA, Digitaria sanguinalis); assay: Greenhouse postemergence trial, visual injury on large crabgrass; settings: Table 19
# Source text: as §2, §3
# as §4, with “combinations. […]” for “combinations.”
# as §6
# [6] = test system: barnyardgrass (ECHCG, Echinochloa crus-galli); assay: Greenhouse postemergence trial, visual injury on barnyardgrass; settings: Table 19
# Source text: as §2, §3
# as §4, with “combinations. […]” for “combinations.”
# as §6
# [7] = test system: soybean (GLXMA, Glycine max); assay: Greenhouse postemergence trial, visual injury on soybean; settings: Table 19
# Source text: as §2, §3
# as §4, with “combinations. […]” for “combinations.”
# as §6
# [8] = test system: Chinese sprangletop (LEFCH, Leptochloa chinensis); assay: Greenhouse postemergence trial, visual injury on Chinese sprangletop; settings: Table 19
# Source text: as §2, §3
# as §4, with “combinations. […]” for “combinations.”
# as §6
# [9] = Compound A 20 g/ha alone, Table 15
# [10] = Compound A 20 g/ha alone, Table 19
# [11] = Compound A 40 g/ha alone, Table 14
# [12] = Compound A 40 g/ha alone, Table 16
# [13] = CQC-mexyl 5 g/ha alone, Table 15
# [14] = CQC-mexyl 10 g/ha alone, Table 15
# [15] = CQC-mexyl 10 g/ha alone, Table 16
# [16] = CQC-mexyl 20 g/ha alone, Table 15
# [17] = CQC-mexyl 20 g/ha alone, Table 16
# [18] = CQC-mexyl 20 g/ha alone, Table 19
# [19] = CQC-mexyl 40 g/ha alone, Table 14
# [20] = CQC-mexyl 40 g/ha alone, Table 15
# [21] = CQC-mexyl 40 g/ha alone, Table 16
# [22] = CQC-mexyl 40 g/ha alone, Table 19
# [23] = CQC-mexyl 80 g/ha alone, Table 16
# [24] = CQC-mexyl 80 g/ha alone, Table 19
smiles,measurement,setting,value
"N#CCOC(=O)c1nc(-c2ccc3cc[nH]c3c2F)c(F)c(N)c1Cl [Compound A, cyanomethyl 4-amino-3-chloro-5-fluoro-6-(7-fluoro-1H-indol-6-yl)pyridine-2-carboxylate]","% visual injury, Ob",[1]; [9],20%
same,"% visual injury, Ob",[1]; [10],25%
same,"% visual injury, Ob",[1]; [11],35%
same,"% visual injury, Ob",[1]; [12],35%
same,"% visual injury, Ob",[1]; herbicide alone 20 g/ha,20%
same,% visual injury Δ,[1]; herbicide alone 40 g/ha,0%
same,"% visual injury, Ob",[1]; herbicide alone 40 g/ha,35% and 25%
same,"% visual injury, Ob",[2]; [9],20%
same,"% visual injury, Ob",[2]; [11],20%
same,"% visual injury, Ob",[2]; [12],40%
same,"% visual injury, Ob",[3]; [12],99%
same,"% visual injury, Ob",[3]; herbicide alone 40 g/ha,99%
same,"% visual injury, Ob",[4]; herbicide alone 20 g/ha,60%
same,"% visual injury, Ob",maize (ZEAMX); [10],13%
same,"% visual injury, Ob","maize (ZEAMX); Compound A 40 g/ha alone, Table 17",55%
same,"% visual injury, Ob","maize (ZEAMX); Compound A 40 g/ha alone, Table 18",55%
same,"% visual injury, Ob",rice (ORYSA); Compound A 20 g/ha alone,10%
same,"% visual injury, Ob",[5]; Compound A 20 g/ha alone,30%
same,"% visual injury, Ob",[6]; Compound A 20 g/ha alone,85%
same,"% visual injury, Ob",[7]; Compound A 20 g/ha alone,100%
same,"% visual injury, Ob",[8]; Compound A 20 g/ha alone,60%
"CCCCCC(C)OC(=O)COc1ccc(Cl)c2cccnc12 (stereo not drawn) [CQC-mexyl, cloquintocet-mexyl]","% visual injury, Ob",[1]; [13],0%
same,"% visual injury, Ob",[1]; [14],0%
same,"% visual injury, Ob",[1]; [15],0%
same,"% visual injury, Ob",[1]; [16],0%
same,"% visual injury, Ob",[1]; [17],0%
same,"% visual injury, Ob",[1]; [18],0%
same,"% visual injury, Ob",[1]; [19],0%
same,"% visual injury, Ob",[1]; [20],0%
same,"% visual injury, Ob",[1]; [21],0%
same,"% visual injury, Ob",[1]; [22],0%
same,"% visual injury, Ob",[1]; [23],0%
same,"% visual injury, Ob",[1]; [24],0%
same,"% visual injury, Ob",[1]; safener alone 40 g/ha,0%
same,"% visual injury, Ob",[2]; [13],0%
same,"% visual injury, Ob",[2]; [14],0%
same,"% visual injury, Ob",[2]; [15],0%
same,"% visual injury, Ob",[2]; [16],0%
same,"% visual injury, Ob",[2]; [17],0%
same,"% visual injury, Ob",[2]; [19],0%
same,"% visual injury, Ob",[2]; [20],0%
same,"% visual injury, Ob",[2]; [21],0%
same,"% visual injury, Ob",[2]; [23],0%
same,"% visual injury, Ob",[2]; safener alone 5 g/ha,0%
same,"% visual injury, Ob",[2]; safener alone 10 g/ha,0%
same,"% visual injury, Ob",[2]; safener alone 20 g/ha,0%
same,"% visual injury, Ob",[2]; safener alone 40 g/ha,0%
same,"% visual injury, Ob",[3]; [15],0%
same,"% visual injury, Ob",[3]; [17],0%
same,"% visual injury, Ob",[3]; [21],0%
same,"% visual injury, Ob",[3]; [23],0%
same,"% visual injury, Ob",[3]; safener alone 5 g/ha,0%
same,"% visual injury, Ob",[3]; safener alone 10 g/ha,0%
same,"% visual injury, Ob",[3]; safener alone 20 g/ha,0%
same,"% visual injury, Ob",[3]; safener alone 40 g/ha,0%
same,"% visual injury, Ob",[4]; safener alone 5 g/ha,0%
same,"% visual injury, Ob",[4]; safener alone 10 g/ha,0%
same,"% visual injury, Ob",[4]; safener alone 20 g/ha,0%
same,"% visual injury, Ob",[4]; safener alone 40 g/ha,0%
same,"% visual injury, Ob","maize (ZEAMX); CQC-mexyl 20 g/ha alone, Table 17",0%
same,"% visual injury, Ob",maize (ZEAMX); [18],0%
same,"% visual injury, Ob","maize (ZEAMX); CQC-mexyl 40 g/ha alone, Table 17",0%
same,"% visual injury, Ob",maize (ZEAMX); [22],0%
same,"% visual injury, Ob","maize (ZEAMX); CQC-mexyl 80 g/ha alone, Table 17",0%
same,"% visual injury, Ob",maize (ZEAMX); [24],0%
same,"% visual injury, Ob","maize (ZEAMX); CQC-mexyl 120 g/ha alone, Table 17",0%
same,"% visual injury, Ob",rice (ORYSA); CQC-mexyl 20 g/ha alone,0%
same,"% visual injury, Ob",rice (ORYSA); CQC-mexyl 40 g/ha alone,0%
same,"% visual injury, Ob",rice (ORYSA); CQC-mexyl 80 g/ha alone,0%
same,"% visual injury, Ob",[5]; CQC-mexyl 20 g/ha alone,0%
same,"% visual injury, Ob",[5]; CQC-mexyl 40 g/ha alone,0%
same,"% visual injury, Ob",[5]; CQC-mexyl 80 g/ha alone,0%
same,"% visual injury, Ob",[6]; CQC-mexyl 20 g/ha alone,0%
same,"% visual injury, Ob",[6]; CQC-mexyl 40 g/ha alone,0%
same,"% visual injury, Ob",[6]; CQC-mexyl 80 g/ha alone,0%
same,"% visual injury, Ob",[7]; CQC-mexyl 20 g/ha alone,0%
same,"% visual injury, Ob",[7]; CQC-mexyl 40 g/ha alone,0%
same,"% visual injury, Ob",[7]; CQC-mexyl 80 g/ha alone,0%
same,"% visual injury, Ob",[8]; CQC-mexyl 20 g/ha alone,0%
same,"% visual injury, Ob",[8]; CQC-mexyl 40 g/ha alone,0%
same,"% visual injury, Ob",[8]; CQC-mexyl 80 g/ha alone,0%
